Experimental data as given in article PMC12160547, “Identification of a Novel Small Molecule STING Agonist Reshaping the Immunomicroenvironment of Pancreatic Ductal Adenocarcinoma” (International Journal of Biological Sciences, 2025).

What was measured:
STING signaling = test: Relative gene expression in RAW-Lucia cells (RT-qPCR); format: cell-based, mouse
Procedure: RNA from tumor tissues or cells was extracted using the SteadyPure Universal RNA Extraction Kit (Accurate Biology) and reverse transcribed into cDNA with the Evo M-MLV Reverse Transcription Kit (Accurate Biology). Relative RNA expression levels were quantified using 2X Universal SYBR Green Fast qPCR Mix (Abclonal), and the results were recorded on the qTOWER®3 84 Real-Time PCR system.

[1] = tested on: pancreatic tumor organoids co-cultured with T cells or macrophages; test: Co-culture of pancreatic tumor organoids and immune cells; format: cell-based, human
Procedure: T cells and monocytes were isolated from the peripheral blood of patients using the EasySep™ Human CD8+ T Cell Isolation Kit and Human Monocyte Isolation Kit ([…]). CD8+ T cells were activated with anti-CD3 (5 μg/mL) and anti-CD28 (5 μg/mL) antibodies (BioLegend), while monocytes were stimulated with 50 ng/mL of M-CSF (BioLegend) for 6 days to induce differentiation into macrophages. […] On day 5, immune cells were harvested for flow cytometry analysis. Tumor organoids were photographed, viability was assessed, and organoids were embedded for HE and IHC staining at days 0, 5, and 10 of co-culture.
Mouse tumors were digested using the Mouse Tumor Dissociation Kit (Miltenyi Biotec) according to the manufacturer's protocol. The resulting single-cell suspension was filtered through a 70-micron mesh to ensure a homogeneous cell population. Cells were stained with fluorescently labeled antibodies for flow cytometry at 4°C on ice for 30 minutes. After washing off unbound antibodies, fluorescence was detected using a Beckman CytoFlex S flow cytometer. For co-cultured immune cells, separated T cells and macrophages were similarly stained with flow cytometry antibodies. For cytokine staining, cells were pre-stimulated with the eBioscience™ Cell Stimulation Cocktail for 4 hours. For intracellular protein staining, after surface staining, cells were fixed and permeabilized using the BD Cytofix/Cytoperm™ Fixation/Permeabilization Kit, followed by staining for intracellular proteins. Flow cytometry data were analyzed using FlowJo 10 software.

[2] = Metabolite profiling in liver microsomes, 60 min incubation; format: in vitro ADME, mouse; details: D166 incubated 60 min; selected ion chromatographic peak areas
[3] = as above; format: in vitro ADME, rat; details: D166 incubated 60 min; selected ion chromatographic peak areas
[4] = tested on: pancreatic tumor organoids; test: Pancreatic tumor organoid viability (AO/PI staining, CellTiter-Glo 3D); format: cell-based, human
Excerpt: Pancreatic tumor organoids were derived from patients diagnosed with pancreatic ductal adenocarcinoma at Ruijin Hospital, affiliated with Shanghai Jiao Tong University School of Medicine. Inclusion criteria required a confirmed histopathological diagnosis of pancreatic ductal adenocarcinoma and the absence of prior neoadjuvant treatment. After obtaining informed consent from the patients, tumor tissues were excised during surgery and preserved in a tissue preservation solution (Absin). The tumor samples were promptly minced into small fragments in pre-chilled RPMI-1640 and digested for 20 minutes at 37°C using the Human Tumor Dissociation Kit (Miltenyi Biotec). The resulting single-cell suspension was filtered through a 100-µm mesh (Falcon) and seeded onto Matrigel (Corning). Following a 30-minute incubation at 37°C, OM12 (Omabio) complete organoid medium was added around the periphery of the Matrigel. The tissue-derived cells successfully grew in a three-dimensional format. The viability of the organoids was assessed using CellTiter-Glo® 3D Cell Viability Assay (Promega) reagents. […] Luminescence was subsequently measured using the BioTek Synergy LX multimode reader (Agilent). […] Acridine orange (AO) binds to the nuclei of all cells, emitting green fluorescence, while propidium iodide (PI) penetrates the cell membrane to stain dead cells red. […]

[5] = tested on: subcutaneous pancreatic tumor; test: CD45.1 T cell or BMDM transfer into CD45.2 tumor-bearing mice; format: in vivo
[6] = tested on: pancreatic orthotopic tumor; test: Pancreatic orthotopic tumor model; format: in vivo, C57BL/6 mice
Procedure: For the pancreatic orthotopic tumor model, mice were anesthetized using […] (2,2,2-tribromoethanol) (Aladdin), and the pancreas was surgically exposed. Approximately 5 × 10^5 tumor cells suspended in 50 μL PBS were injected into the pancreas. The incision was then closed, and the mice were allowed to recover under close observation. On days 9, 12, and 15, the mice received intraperitoneal injections of three different concentrations of the drug. As with the subcutaneous model, the mice were euthanized on day 25, tumors were collected, weighed, and further analyzed. Additionally, at least 10 mice from each group were randomly selected to undergo the same treatments without euthanasia, and their survival times were recorded to generate survival curves.
Pancreatic orthotopic tumor models were established using mouse pancreatic tumor cell lines (Pan02-luc and KPC-luc). Mice were intraperitoneally injected with 200 µL of D-Luciferin working solution (15 mg/mL) (Yeasen) and continuously anesthetized with isoflurane. Ten minutes after injection, the intensity and distribution of luciferase luminescence were measured using the Tanon ABL-X5 in vivo imaging system. Tumor size was monitored weekly, with consistent exposure times and intensities for imaging.
(§1) Multiplex cytokine detection was performed using Luminex cytokine bead array technology provided by WayenBio, Shanghai. In the mouse tumor model, levels of multiple cytokines were simultaneously measured and normalized to tumor weight. For the quantification of specific cytokines, such as IL-6 and IFN-β, enzyme-linked immunosorbent assay (ELISA) kits from Abclonal were used. The assays were conducted according to the manufacturer's instructions.

[7] = Pharmacokinetic parameters, i.v. and p.o.; format: in vivo; details: plasma
[8] = tested on: subcutaneous pancreatic tumor; test: Subcutaneous pancreatic tumor model; format: in vivo, C57BL/6 mice
Procedure: C57BL/6 mice were obtained from Phenotek (Shanghai) and randomly assigned to groups, with a minimum of six mice per group. For the subcutaneous tumor model, approximately 5 × 10^5 tumor cells were suspended in 150 μL PBS and injected into the left flank of the mice. Tumor size was measured every four days starting from day 7 post-injection. On days 9, 12, and 15, the mice were administered three different concentrations of the drug via peritumoral injection, while the Control group received only the solvent. The mice were euthanized on day 25, and tumors were excised, weighed, and further analyzed.
as §1

[9] = Metabolite profiling in liver microsomes, 60 min incubation; format: in vitro ADME, dog; details: D166 incubated 60 min; selected ion chromatographic peak areas
[10] = CD45.1 bone marrow-derived macrophages transferred

In the case of [2H]C([2H])([2H])Oc1cc2cc(C(=O)CCC(=O)O)sc2cc1OC([2H])([2H])[2H] [D166], the “Relative expression (Cxcl10/actin)” value (STING signaling) is reported as 158.00 ± 2.91, the “size and viability of pancreatic cancer organoids” value ([1]; CTG assay, days 0, 5, 10 of co-culture) is reported as “significant reduction” and the “IL-6, IFN-β, IFN-γ, and TNF-α levels” value ([1]; culture medium, ELISA) is reported as “significantly increased”. The “IFNG and GZMB release from T cells” value ([1]; flow cytometry) was “marked increase”, the “mean fluorescence intensities (MFI) of CD86 and CD80 (M1 markers) in macrophages” value ([1]; flow cytometry) was “significantly increased” and the “mean fluorescence intensities (MFI) of CD163 and CD206 (M2 markers) in macrophages” value ([1]; flow cytometry) was “significantly decreased”. The “Relative Peak Area Abundance (%) MLM” value [2] was 94.2%, the “Relative Peak Area Abundance (%) RLM” value [3] was 97.7% and the “viability of pancreatic tumor organoids” value ([4]; increased concentration of D166) was “decreased viability”. For the same compound, the “inhibiting organoid viability compared with ADU-S100, MSA-2, SR-717, MK-1454 and DXMAA” value ([4]; organoids, 10μM) was “better efficacy”, the tumor progression ([5]; CD45.1 T cells transferred, D166 concentration increased) was “slowed” and the “expression of M1 macrophage markers (CD86 and iNOS) in CD45.1 macrophages” value [5, 10] was “increased”. The “expression of M2 markers in CD45.1 macrophages” value [5, 10] was “decreased”, the “IFNG, GZMB, and PDCD1 in the CD45.1 T cells” value ([5]; sorted CD45.1 cells) was “significant upregulation” and the “cytokine levels in the TME, including IL-6, IFN-β, and TNF-α” value ([6]; higher D166 doses, ELISA) was “elevated cytokine levels”. The “inhibition of tumor proliferation, weekly in vivo imaging” value ([6]; increasing D166 concentrations, compared with DMXAA) was “more potent effect than DMXAA”, the pancreatic tumor progression ([6]; intraperitoneal injection at varying doses) was “significant dose-dependent inhibition” and the AUC(0-inf) ([7]; iv, average of three runs) was 750 ng·h/mL. It also gave an MRT inf ([7]; iv, average of three runs) of 15.6 min, a clearance ([7]; iv, average of three runs) of 22.5 mL/min/kg and a half-life ([7]; iv, average of three runs) of 45 min. It also gave a Vd ([7]; iv, average of three runs, read-out: Vz) of 1.45 L/kg, an AUC(0-inf) ([7]; po, average of three runs) of 2120 ng·h/mL and an MRT inf ([7]; po, average of three runs) of 66 min. The half-life ([7]; po, average of three runs) was 81 min, the bioavailability ([7]; p.o., oral bioavailability) was 93.8% and the “IL-6, IFN-β, and TNF-α levels in the TME” value ([8]; higher D166 doses, ELISA) was “increased”. The tumor growth ([8]; peritumoral injection, different doses) was “significant dose-dependent inhibitory effect”, the “antitumor efficacy compared with other STING agonists” value ([8]; tumor weight, Figure S4A) was “comparable to that of other STING agonists” and the “Relative Peak Area Abundance (%) DLM” value [9] was 98.6%.
